This series can be described thus: wn = mass fraction of the nth substance listed. The note with it: 101 kPa, Liquid, Vibrating tube method.

± gives the expanded uncertainty stated by the source.

Turning to `[Cl-].[Na+]` [sodium chloride] + O, the mass density runs as follows: (293.15 K, w1 = 0.02) 1012.4 ± 0.8 kg/m3; (293.15 K, w1 = 0.04) 1026.7 ± 0.8 kg/m3; (303.15 K, w1 = 0.02) 1012.4 ± 0.8 kg/m3; (303.15 K, w1 = 0.04) 1026.7 ± 0.8 kg/m3; (313.15 K, w1 = 0.02) 1006.1 ± 0.8 kg/m3.

Broadly, the mass density is the mass of a sample divided by its volume.
